Experimental data taken from ChEMBL document CHEMBL3885861, “Open TG-GATES”.

Species on record: Rattus norvegicus
Assay: Open TG-GATES - Regimen: Daily Repeat
Assay type: toxicity, organism-based, Sprague-Dawley
Design: regimen Daily Repeat, gender Male, age 6 weeks
Conditions: in vivo, po, route gavage; for APTT / Bas / Eos / Fbg / Hb / Ht / Lym / MCH / MCHC / MCV / Mono / Neu / PT / Plat / RBC / Ret / WBC: tissue Blood; for KIDNEY_L / KIDNEY_R / KIDNEY_TOTAL: tissue Kidney; for LIVER: tissue Liver; for ALP / ALT / AST / BUN / CRE / Ca / Cl / DBIL / GLC / IP / K / LDH / Na / PL / RALB / TBIL / TC / TG / TP / gamma-GTP: tissue Plasma
[1] = 0 mg/kg, 72 h, dose level Control, time 3 day
[2] = 0 mg/kg, […], dose level Control, time 7 day
[3] = 0 mg/kg, […], dose level Control, time 14 day
[4] = 0 mg/kg, […], dose level Control, time 28 day
[5] = 100 mg/kg, 72 h, dose level Low, time 3 day
[6] = 100 mg/kg, […], dose level Low, time 7 day
[7] = 100 mg/kg, […], dose level Low, time 14 day
[8] = 100 mg/kg, […], dose level Low, time 28 day

COC(=O)C1=C(C)NC(C)=C(C(=O)OC)C1c1ccccc1[N+](=O)[O-] [NIFEDIPINE]
TERMINAL_BW [1]: 227.8 g
APTT [1]: 16.7 s
Bas [1]: 0.4%
Eos [1]: 1%
Fbg [1]: 313.6 mg/dL
Hb [1]: 13.4 g/dL
Ht [1]: 41.3%
Lym [1]: 80.2%
MCH [1]: 20.8 pg
MCHC [1]: 32.5%
MCV [1]: 64.2 fL
Mono [1]: 3.2%
Neu [1]: 14%
PT [1]: 14.5 s
Plat [1]: 122.9 x10_4/uL
RBC [1]: 643.8 x10_4/ul
Ret [1]: 7.5%
WBC [1]: 94.6 x10_2/uL
KIDNEY_L [1]: 1 g
KIDNEY_R [1]: 1 g
KIDNEY_TOTAL [1]: 2 g
LIVER [1]: 10.4 g
ALP [1]: 1654.8 IU/L
ALT [1]: 47.6 IU/L
AST [1]: 71.4 IU/L
BUN [1]: 14 mg/dL
CRE [1]: 0.2 mg/dL
Ca [1]: 11.1 mg/dL
Cl [1]: 106 meq/L
DBIL [1]: 0.014 mg/dL
GLC [1]: 179.2 mg/dL
IP [1]: 7.7 mg/dL
K [1]: 4.2 meq/L
LDH [1]: 85.4 IU/L
Na [1]: 144.8 meq/L
PL [1]: 162 mg/dL
RALB [1]: 2.7 g/dL
TBIL [1]: 0.028 mg/dL
TC [1]: 83.8 mg/dL
TG [1]: 109.2 mg/dL
TP [1]: 5.8 g/dL
gamma-GTP [1]: 1 IU/L
TERMINAL_BW [2]: 262.8 g
TERMINAL_BW [3]: 320 g
TERMINAL_BW [4]: 416 g
APTT [2]: 16.1 s
Bas [2]: 0.4%
Eos [2]: 1.4%
Fbg [2]: 286.6 mg/dL
Hb [2]: 13.7 g/dL
Ht [2]: 42%
Lym [2]: 75.8%
MCH [2]: 21 pg
MCHC [2]: 32.7%
MCV [2]: 64.1 fL
Mono [2]: 3%
Neu [2]: 18.2%
PT [2]: 14.2 s
Plat [2]: 133.6 x10_4/uL
RBC [2]: 656.4 x10_4/ul
Ret [2]: 5.7%
WBC [2]: 100.3 x10_2/uL
APTT [3]: 18.1 s
Bas [3]: 0%
Eos [3]: 1%
Fbg [3]: 320.8 mg/dL
Hb [3]: 14.8 g/dL
Ht [3]: 44.1%
Lym [3]: 79.2%
MCH [3]: 20.6 pg
MCHC [3]: 33.5%
MCV [3]: 61.3 fL
Mono [3]: 3%
Neu [3]: 15.6%
PT [3]: 14.2 s
Plat [3]: 117.8 x10_4/uL
RBC [3]: 720.2 x10_4/ul
Ret [3]: 4.2%
WBC [3]: 101 x10_2/uL
APTT [4]: 16.7 s
Bas [4]: 0.4%
Eos [4]: 1%
Fbg [4]: 313.6 mg/dL
Hb [4]: 13.4 g/dL
Ht [4]: 41.3%
Lym [4]: 80.2%
MCH [4]: 20.8 pg
MCHC [4]: 32.5%
MCV [4]: 64.2 fL
Mono [4]: 3.2%
Neu [4]: 14%
PT [4]: 14.5 s
Plat [4]: 122.9 x10_4/uL
RBC [4]: 643.8 x10_4/ul
Ret [4]: 7.5%
WBC [4]: 94.6 x10_2/uL
KIDNEY_L [2]: 1 g
KIDNEY_R [2]: 1 g
KIDNEY_TOTAL [2]: 2.1 g
KIDNEY_L [3]: 1.2 g
KIDNEY_R [3]: 1.2 g
KIDNEY_TOTAL [3]: 2.5 g
KIDNEY_L [4]: 1.4 g
KIDNEY_R [4]: 1.4 g
KIDNEY_TOTAL [4]: 2.7 g
LIVER [2]: 12.1 g
LIVER [3]: 13.8 g
LIVER [4]: 17.4 g
ALP [2]: 1580.4 IU/L
ALT [2]: 42.6 IU/L
AST [2]: 68.6 IU/L
BUN [2]: 15.4 mg/dL
CRE [2]: 0.2 mg/dL
Ca [2]: 11 mg/dL
Cl [2]: 106.4 meq/L
DBIL [2]: 0.014 mg/dL
GLC [2]: 183.6 mg/dL
IP [2]: 7.4 mg/dL
K [2]: 4 meq/L
LDH [2]: 98.2 IU/L
Na [2]: 145.2 meq/L
PL [2]: 159.2 mg/dL
RALB [2]: 2.7 g/dL
TBIL [2]: 0.026 mg/dL
TC [2]: 82.4 mg/dL
TG [2]: 111.8 mg/dL
TP [2]: 5.9 g/dL
gamma-GTP [2]: 1 IU/L
ALP [3]: 1854.8 IU/L
ALT [3]: 41.8 IU/L
AST [3]: 65 IU/L
BUN [3]: 16 mg/dL
CRE [3]: 0.2 mg/dL
Cl [3]: 105.6 meq/L
DBIL [3]: 0.012 mg/dL
GLC [3]: 184 mg/dL
IP [3]: 7.3 mg/dL
K [3]: 4 meq/L
LDH [3]: 57.8 IU/L
Na [3]: 144.2 meq/L
PL [3]: 158.8 mg/dL
RALB [3]: 2.8 g/dL
TBIL [3]: 0.024 mg/dL
TC [3]: 75.4 mg/dL
TG [3]: 150.8 mg/dL
TP [3]: 6 g/dL
gamma-GTP [3]: 1 IU/L
ALP [4]: 1068.6 IU/L
ALT [4]: 36.2 IU/L
AST [4]: 63 IU/L
BUN [4]: 17.4 mg/dL
CRE [4]: 0.3 mg/dL
Ca [4]: 10.7 mg/dL
Cl [4]: 104.4 meq/L
DBIL [4]: 0.01 mg/dL
GLC [4]: 192.8 mg/dL
IP [4]: 6.1 mg/dL
K [4]: 3.9 meq/L
LDH [4]: 66 IU/L
Na [4]: 143.8 meq/L
PL [4]: 161.6 mg/dL
RALB [4]: 2.8 g/dL
TBIL [4]: 0.026 mg/dL
TC [4]: 75 mg/dL
TG [4]: 175.2 mg/dL
TP [4]: 6.3 g/dL
gamma-GTP [4]: 0.8 IU/L
TERMINAL_BW [5]: 223 g
APTT [5]: 17.6 s
Bas [5]: 0%
Eos [5]: 1%
Fbg [5]: 281.6 mg/dL
Hb [5]: 13.6 g/dL
Ht [5]: 42.3%
Lym [5]: 71.4%
MCH [5]: 20.7 pg
MCHC [5]: 32.3%
MCV [5]: 64 fL
Mono [5]: 3.4%
Neu [5]: 23.6%
PT [5]: 13.8 s
Plat [5]: 130.7 x10_4/uL
RBC [5]: 660.2 x10_4/ul
Ret [5]: 9.2%
WBC [5]: 96 x10_2/uL
KIDNEY_L [5]: 0.9 g
KIDNEY_R [5]: 0.9 g
KIDNEY_TOTAL [5]: 1.9 g
LIVER [5]: 11 g
ALP [5]: 1508 IU/L
ALT [5]: 46.6 IU/L
AST [5]: 65.8 IU/L
BUN [5]: 15 mg/dL
CRE [5]: 0.2 mg/dL
Ca [5]: 10.9 mg/dL
Cl [5]: 107 meq/L
DBIL [5]: 0.014 mg/dL
GLC [5]: 173.4 mg/dL
IP [5]: 6.8 mg/dL
K [5]: 4.5 meq/L
LDH [5]: 88.6 IU/L
Na [5]: 143.2 meq/L
PL [5]: 152 mg/dL
RALB [5]: 2.7 g/dL
TBIL [5]: 0.028 mg/dL
TC [5]: 82.2 mg/dL
TG [5]: 98.8 mg/dL
TP [5]: 5.7 g/dL
gamma-GTP [5]: 1 IU/L
TERMINAL_BW [6]: 261.8 g
TERMINAL_BW [7]: 322.2 g
TERMINAL_BW [8]: 378.4 g
APTT [6]: 14.8 s
Bas [6]: 0.2%
Eos [6]: 1.4%
Fbg [6]: 283.4 mg/dL
Hb [6]: 13.8 g/dL
Ht [6]: 42.1%
Lym [6]: 73%
MCH [6]: 20.9 pg
MCHC [6]: 32.8%
MCV [6]: 63.8 fL
Mono [6]: 3%
Neu [6]: 21.8%
PT [6]: 13.7 s
Plat [6]: 125.1 x10_4/uL
RBC [6]: 659.6 x10_4/ul
Ret [6]: 6.8%
WBC [6]: 105.6 x10_2/uL
APTT [7]: 19 s
Bas [7]: 0.2%
Eos [7]: 1%
Fbg [7]: 260.4 mg/dL
Hb [7]: 14.5 g/dL
Ht [7]: 43.7%
Lym [7]: 72.4%
MCH [7]: 21.1 pg
MCHC [7]: 33.2%
MCV [7]: 63.6 fL
Mono [7]: 2.8%
PT [7]: 14 s
Plat [7]: 113.8 x10_4/uL
RBC [7]: 688 x10_4/ul
Ret [7]: 5.4%
WBC [7]: 110.8 x10_2/uL
APTT [8]: 17.6 s
Bas [8]: 0%
Eos [8]: 1%
Fbg [8]: 281.6 mg/dL
Hb [8]: 13.6 g/dL
Ht [8]: 42.3%
Lym [8]: 71.4%
MCH [8]: 20.7 pg
MCHC [8]: 32.3%
MCV [8]: 64 fL
Mono [8]: 3.4%
Neu [8]: 23.6%
PT [8]: 13.8 s
Plat [8]: 130.7 x10_4/uL
RBC [8]: 660.2 x10_4/ul
Ret [8]: 9.2%
WBC [8]: 96 x10_2/uL
KIDNEY_L [6]: 1.1 g
KIDNEY_R [6]: 1.1 g
KIDNEY_TOTAL [6]: 2.1 g
KIDNEY_L [7]: 1.2 g
KIDNEY_R [7]: 1.2 g
KIDNEY_TOTAL [7]: 2.5 g
KIDNEY_L [8]: 1.3 g
KIDNEY_R [8]: 1.3 g
KIDNEY_TOTAL [8]: 2.6 g
LIVER [6]: 13.2 g
LIVER [7]: 15 g
LIVER [8]: 15.4 g
ALP [6]: 1407 IU/L
ALT [6]: 47 IU/L
AST [6]: 67.4 IU/L
BUN [6]: 17.4 mg/dL
CRE [6]: 0.2 mg/dL
Ca [6]: 10.7 mg/dL
Cl [6]: 106.2 meq/L
DBIL [6]: 0.014 mg/dL
GLC [6]: 174.8 mg/dL
IP [6]: 6.8 mg/dL
K [6]: 4.2 meq/L
LDH [6]: 86.4 IU/L
Na [6]: 143.8 meq/L
PL [6]: 144 mg/dL
RALB [6]: 2.7 g/dL
TBIL [6]: 0.028 mg/dL
TC [6]: 77.4 mg/dL
TG [6]: 93.4 mg/dL
TP [6]: 5.9 g/dL
gamma-GTP [6]: 1 IU/L
ALP [7]: 1646.4 IU/L
ALT [7]: 44.4 IU/L
AST [7]: 71.4 IU/L
BUN [7]: 17.6 mg/dL
CRE [7]: 0.2 mg/dL
Ca [7]: 11 mg/dL
Cl [7]: 105.8 meq/L
DBIL [7]: 0.012 mg/dL
GLC [7]: 177.4 mg/dL
IP [7]: 6.7 mg/dL
K [7]: 4.2 meq/L
LDH [7]: 46.2 IU/L
Na [7]: 143.2 meq/L
PL [7]: 149.6 mg/dL
RALB [7]: 2.7 g/dL
TBIL [7]: 0.026 mg/dL
TC [7]: 73.6 mg/dL
TP [7]: 5.9 g/dL
gamma-GTP [7]: 1 IU/L
ALP [8]: 1032.8 IU/L
ALT [8]: 39.6 IU/L
AST [8]: 71.2 IU/L
BUN [8]: 17.2 mg/dL
CRE [8]: 0.3 mg/dL
Ca [8]: 10.4 mg/dL
Cl [8]: 107.4 meq/L
DBIL [8]: 0.012 mg/dL
GLC [8]: 167.8 mg/dL
IP [8]: 5.6 mg/dL
K [8]: 3.9 meq/L
LDH [8]: 61.8 IU/L
Na [8]: 143.8 meq/L
PL [8]: 135 mg/dL
RALB [8]: 2.8 g/dL
TBIL [8]: 0.024 mg/dL
TC [8]: 64.6 mg/dL
TG [8]: 117.8 mg/dL
TP [8]: 6.1 g/dL
